# According to patent US20140248361A1, “HERBAL EXTRACT COMPOSITION AND A PROCESS THEREOF” (PRASAN SOLUTIONS (INDIA) PVT LTD, priority 2012, published 2014):
# What was measured:
# [1] = Estimation of shelf life of palm oil (Rancimat temperature extrapolation); settings: 200 ppm
# Description: (§2) This is an aid for estimating the shelf life of oils and fats. The extrapolation makes use of the relationship between the measured induction time and the temperature given by van't Hoff's law. Several measurements are made at different temperatures and then extrapolated to the storage temperature. The values so obtained allow estimation of the storage stability of the oil or fat containing PRESOL.
# (§3) The shelf life is calculated using Rancimat shelf life calculator.
# [2] = Estimation of shelf life of sunflower oil (Rancimat temperature extrapolation); settings: 200 ppm
# Description: as §2, §3
# [3] = Peroxide value of palm oil on storage
# Description: (§4) The shelf life of oil is studied by carrying out chemical analysis, which include studying peroxide value (represents extent of primary oxidation), Para-anisidine value (represents extent of secondary oxidation) and totox value (reflects total oxidation of oil). These parameters are determined for 1 kg of untreated oil and treated oil at every 15 days interval for samples stored at ambient temperature and at every 7 days interval for samples stored at 50° C. The treated oil being, the oil upon addition of 200 ppm of TBHQ (sample-A), 200 ppm of BHA (sample-B), 200 ppm and 500 ppm of pulverized green tea extract with 90% polyphenol (sample-C), 200 ppm and 500 ppm of rosemary extract (sample-D), 200 ppm and 500 ppm of green tea extract after cryogenic grinding (sample-E), 200 ppm and 500 ppm of crude green tea extract (sample-F) and PRESOL at 200 ppm and 500 ppm. The untreated oil is the control sample without any antioxidant.
# (§5) The threshold limit for per oxide value under which oil can be used for safe consumption is 10 meq of O2/Kg oil. Similarly, the threshold limit of para-anisidine value and Totox value is 10 and 30, respectively.
# [4] = Para-anisidine value of palm oil on storage
# Description: as §4, §5
# [5] = Totox value of palm oil on storage; settings: for days after which Totox value crosses threshold limit: threshold 30
# Description: as §4, §5
# Shelf life of canola oil = settings: 200 ppm
# Description: D. Determination of Shelf Life of Canola Oil in the Presence of PRESOL • Shelf life of canola oil is analyzed upon adding 200 ppm of TBHQ (sample-A), BHA (sample-B), green tea extract with 90% polyphenol (sample-C), rosemary extract (sample-D), green tea extract after cryogenic grinding (sample-E), and PRESOL, respectively to canola oil.
# [6] = Frying cycle analysis of palm oil (total polar compounds); settings: palm oil
# Description: (§1) Palm oil and sunflower oil with antioxidants added to it are obtained from a local refinery. Frying studies are carried out with control oil and by adding TBHQ (Sample A), BHA (Sample B), GT Pulverized (Sample C), ROS (Sample D), GT Cryo grinded (Sample E), GT Crude Extract (Sample F) and PRESOL, respectively to the oils. Experiments are carried out a concentration of 200 ppm and 500 ppm. Fresh potatoes of less reduced sugar content variety are used throughout the experiment which is purchased form a local supermarket. Oil samples are withdrawn from the fryer at the end of every day and stored at −4° C. until it is tested for quality parameters viz, total polar compounds. Polar compounds present in oil and fats are measured by column chromatography using standard method, ES ISO 8420:2012.
# [7] = Frying cycle analysis of sunflower oil (total polar compounds); settings: for Total Polar compounds of sunflower oil: 200 ppm
# Description: as §1
# [8] = Effect of particle size on antioxidant activity (Rancimat induction time) in palm oil; settings: 200 ppm in palm oil; Rancimat 120° C.
# Description: (§6) Effect of particle size analysis on antioxidant activity is analysed with the help of Rancimat (Metrohm 743) which gives oxidative stability index based on the induction time (h). Rancimat analysis is carried out at two different temperature in order to set relationship between induction time and temperature of the studies.
# (§7) In this, we have analyzed the particle size of samples with the help of Particle Size Analyzer (Microtrac, S3500) and its antioxidant activity with the help of Rancimat (Metrohm 743).
# [9] = Effect of particle size on antioxidant activity (Rancimat induction time) in sunflower oil; settings: 200 ppm in sunflower oil; Rancimat 100° C.
# Description: as §6, §7
# [10] = Oil stability index (Rancimat) of palm oil; settings: 200 ppm
# Description: (§8) As used herein, ‘Oil Stability Index (OSI)’ is an American Oil Chemists Society (AOCS) approved method that determines the relative resistance of fat and oil samples to oxidation, which is defined by the following equation—
# (§9) The oil stability index is determined using the Metrohm's Rancimat (Metrohm 743 Rancimat).
# 4.0 g of palm oil is weighed into the reaction vessel. The reaction vessel filled with oil is placed in a heating block. The temperature of the block is maintained at 100° C., 120° C. and 140° C., respectively. The oil is heated at the said temperatures, followed by passing air at a flow rate of 20 L/h. Flowing of air through the oil produces peroxides during primary oxidation and organic acids having low molecular weight, aldehydes and ketones with typical rancid odor during the secondary oxidation phase. These compounds are conveyed by the air flow into measurement vessel containing distilled water where conductivity is being checked continuously by sensor.
# [11] = Oil stability index (Rancimat) of almond oil; settings: 200 ppm; for Induction Time: in h
# Description: as §9
# 4.0 g of almond oil is weighed into the reaction vessel. The reaction vessel filled with oil is placed in a heating block. The temperature of the block is maintained at 100° C., 120° C. and 140° C., respectively. The oil is heated at the said temperatures, followed by passing air at a flow rate of 20 L/h. […] These compounds are conveyed by the air flow into measurement vessel containing distilled water where conductivity is being checked continuously by sensor.
# The above experiment is repeated by adding 200 ppm of BHA (sample-B), 200 ppm of BHT (sample-B1), 500 ppm of alpha tocopherol (sample-B2) and PRESOL at 200 ppm, 500 ppm and 1000 ppm, respectively to almond oil. From the above experiment, oxidative stability index of untreated oil (control) and treated oil is calculated and the below table illustrates the induction time and the obtained oxidative stability.
# [12] = Oil stability index (Rancimat) of apricot oil; settings: 200 ppm; for Induction Time at 200 ppm: in h
# Description: as §8, §9
# 4.0 g of apricot oil is weighed into the reaction vessel. The reaction vessel filled with oil is placed in a heating block. The temperature of the block is maintained at 100° C., 120° C. and 140° C., respectively. The oil is heated at the said temperatures, followed by passing air at a flow rate of 20 L/h. Flowing of air through the oil produces peroxides during primary oxidation and organic acids having low molecular weight, aldehydes and ketones with typical rancid odor during the secondary oxidation phase. These compounds are conveyed by the air flow into measurement vessel containing distilled water where conductivity is being checked continuously by sensor.
# The above experiment is repeated by adding 200 ppm of BHA (sample-B), 200 ppm of BHT (sample-B1), 500 ppm of alpha tocopherol (sample-B2) and PRESOL at 200 ppm, 500 ppm and 1000 ppm, respectively to apricot oil.
# [13] = Oil stability index (Rancimat) of sunflower oil; settings: 200 ppm
# Description: as §8, §9
# 4.0 g of sunflower oil is weighed into the reaction vessel. The reaction vessel filled with oil is placed in a heating block. The temperature of the block is maintained at 80° C., 100° C. and 120° C., respectively. The oil is heated at the said temperatures, followed by passing air at a flow rate of 20 L/h. Flowing of air through the oil produces peroxides during primary oxidation and organic acids having low molecular weight, aldehydes and ketones with typical rancid odor during the secondary oxidation phase. These compounds are conveyed by the air flow into measurement vessel containing distilled water where conductivity is being checked continuously by sensor.
# [14] = ambient temperature, day 0, 200 ppm
# [15] = ambient temperature, day 15, 200 ppm
# [16] = ambient temperature, day 30, 200 ppm
# [17] = ambient temperature, day 45, 200 ppm
# [18] = ambient temperature, day 60, 200 ppm
# [19] = ambient temperature, day 75, 200 ppm
# [20] = ambient temperature, day 90, 200 ppm
# [21] = ambient temperature, day 105, 200 ppm
# [22] = ambient temperature, day 120, 200 ppm
# [23] = ambient temperature, day 135, 200 ppm
# [24] = ambient temperature, day 150, 200 ppm
# [25] = ambient temperature, day 165, 200 ppm
# [26] = ambient temperature, day 180, 200 ppm
smiles,measurement,setting,value
"COc1ccc(O)c(C(C)(C)C)c1 [Sample B, butylated hydroxyanisole]",Shelf Life (days) at 30° C.,[1],260.9 days
same,Shelf Life (days) at 30° C.,[2],87.2 days
same,Peroxide value,"[3]; 50° C., day 0, 200 ppm",0.482
same,Peroxide value,"[3]; 50° C., day 7, 200 ppm",4.735
same,Peroxide value,"[3]; 50° C., day 15, 200 ppm",9.973
same,Peroxide value,"[3]; 50° C., day 22, 200 ppm",13.062
same,Peroxide value,"[3]; 50° C., day 30, 200 ppm",16.45
same,Peroxide value,"[3]; 50° C., day 37, 200 ppm",35.595
same,Peroxide value,"[3]; 50° C., day 45, 200 ppm",60.884
same,Peroxide value,"[3]; 50° C., day 52, 200 ppm",51.15
same,Peroxide value,"[3]; 50° C., day 60, 200 ppm",42.269
same,Peroxide value,"[3]; 50° C., day 67, 200 ppm",34.974
same,Peroxide value,"[3]; 50° C., day 75, 200 ppm",25.576
same,Peroxide value,"[3]; 50° C., day 82, 200 ppm",11.31
same,Peroxide value,"[3]; 50° C., day 90, 200 ppm",15.231
same,Peroxide value,[3]; [14],0.465
same,Peroxide value,[3]; [15],0.868
same,Peroxide value,[3]; [16],1.691
same,Peroxide value,[3]; [17],2.684
same,Peroxide value,[3]; [18],4.034
same,Peroxide value,[3]; [19],4.748
same,Peroxide value,[3]; [20],5.034
same,Peroxide value,[3]; [21],5.316
same,Peroxide value,[3]; [22],6.307
same,Peroxide value,[3]; [23],7.887
same,Peroxide value,[3]; [24],8.617
same,Peroxide value,[3]; [25],11.307
same,Peroxide value,[3]; [26],12.75
same,days after which peroxide value crosses threshold limit,"[3]; ambient temperature, threshold 10 meq of O2/Kg oil",165 days
same,Para-anisidine value,"[4]; 50° C., day 0, 200 ppm",2.69
same,Para-anisidine value,"[4]; 50° C., day 7, 200 ppm",3.186
same,Para-anisidine value,"[4]; 50° C., day 15, 200 ppm",4.011
same,Para-anisidine value,"[4]; 50° C., day 22, 200 ppm",4.204
same,Para-anisidine value,"[4]; 50° C., day 30, 200 ppm",5.542
same,Para-anisidine value,"[4]; 50° C., day 37, 200 ppm",5.617
same,Para-anisidine value,"[4]; 50° C., day 45, 200 ppm",5.794
same,Para-anisidine value,"[4]; 50° C., day 52, 200 ppm",5.827
same,Para-anisidine value,"[4]; 50° C., day 60, 200 ppm",6.165
same,Para-anisidine value,"[4]; 50° C., day 67, 200 ppm",6.22
same,Para-anisidine value,"[4]; 50° C., day 75, 200 ppm",6.269
same,Para-anisidine value,"[4]; 50° C., day 82, 200 ppm",6.503
same,Para-anisidine value,"[4]; 50° C., day 90, 200 ppm",6.657
same,Para-anisidine value,[4]; [14],2.566
same,Para-anisidine value,[4]; [15],2.602
same,Para-anisidine value,[4]; [16],3.18
same,Para-anisidine value,[4]; [17],2.899
same,Para-anisidine value,[4]; [18],2.759
same,Para-anisidine value,[4]; [19],2.952
same,Para-anisidine value,[4]; [20],3.113
same,Para-anisidine value,[4]; [21],3.455
same,Para-anisidine value,[4]; [22],3.499
same,Para-anisidine value,[4]; [23],3.593
same,Para-anisidine value,[4]; [24],3.759
same,Para-anisidine value,[4]; [25],4.169
same,Para-anisidine value,[4]; [26],4.493
same,days after which Totox value crosses threshold limit,[5]; 50° C.,180 days
same,Totox value,[5]; [14],3.497
same,Totox value,[5]; [15],4.338
same,Totox value,[5]; [16],6.561
same,Totox value,[5]; [17],8.268
same,Totox value,[5]; [18],10.827
same,Totox value,[5]; [19],12.449
same,Totox value,[5]; [20],13.181
same,Totox value,[5]; [21],14.088
same,Totox value,[5]; [22],16.114
same,Totox value,[5]; [23],19.368
same,Totox value,[5]; [24],20.994
same,Totox value,[5]; [25],26.783
same,Totox value,[5]; [26],29.993
same,days after which Totox value crosses threshold limit,[5]; ambient temperature,180 days
same,Shelf Life (No. Of Days),Shelf life of canola oil,37 days
same,frying cycle after which threshold limit for total polar compounds is crossed,[6],40 cycle
same,Total Polar compounds of sunflower oil,[7]; frying cycle 0,3.515
same,Total Polar compounds of sunflower oil,[7]; frying cycle 8,6.958
same,Total Polar compounds of sunflower oil,[7]; frying cycle 16,14.124
same,Total Polar compounds of sunflower oil,[7]; frying cycle 24,20.105
same,Total Polar compounds of sunflower oil,[7]; frying cycle 32,26.085
same,Total Polar compounds of sunflower oil,[7]; frying cycle 40,31.692
same,frying cycle after which threshold limit for total polar compounds is crossed,[7]; sunflower oil,40 cycle
same,Induction Period (h) of PO at 120° C.,[8],9.88 h
same,Induction Period (h) of SFO 100° C.,[9],13.33 h
same,Induction Time,[10]; 100° C.,43.33 h
same,Oxidative Stability Index (OSI),[10]; 100° C.,1.04
same,Induction Time,[10]; 120° C.,9.88 h
same,Oxidative Stability Index (OSI),[10]; 120° C.,1.02
same,Induction Time,[10]; 140° C.,2.51 h
same,Oxidative Stability Index (OSI),[10]; 140° C.,1.02
same,Oxidative Stability Index (OSI),[11]; 100° C.,1.14
same,Induction Time,[11]; 100° C.,25.14
same,Oxidative Stability Index (OSI),[11]; 120° C.,1.21
same,Induction Time,[11]; 120° C.,6.11
same,Oxidative Stability Index (OSI),[11]; 140° C.,1.11
same,Induction Time,[11]; 140° C.,1.52
same,Oxidative Stability Index (OSI),[12]; 100° C.,1.08
same,Induction Time at 200 ppm,[12]; 100° C.,29.16
same,Oxidative Stability Index (OSI),[12]; 120° C.,1.13
same,Induction Time at 200 ppm,[12]; 120° C.,6.66
same,Oxidative Stability Index (OSI),[12]; 140° C.,1.06
same,Induction Time at 200 ppm,[12]; 140° C.,1.57
same,Induction Time,[13]; 80° C.,50.39 h
same,Oxidative Stability Index (OSI),[13]; 80° C.,1.38
same,Induction Time,[13]; 100° C.,13.33 h
same,Oxidative Stability Index (OSI),[13]; 100° C.,1.43
same,Induction Time,[13]; 120° C.,2.64 h
same,Oxidative Stability Index (OSI),[13]; 120° C.,1.12
